What was measured:
IκBα = IκBα mRNA and protein in frontal cortex cytosol extracts after ethanol intoxication; format: in vivo, Wistar rats; settings: OEA pre-treatment
Procedure: The animals were treated with intragastric (i.g.) ethanol 3 times a day using an i.g. cannula (16G needle, Fisher Scientific, Waltham, Mass., USA), following a protocol based on a slightly modified standard 4-day alcohol intoxication pattern (Bernier et al., 2002a, b) (FIG. 1A). The ethanol doses were administered every 8 h for a total time of 4 days. The rats treated with ethanol received an initial loading dose of 5 g/kg of ethanol in a 30% solution (w/v) and then a maximum maintenance dose of 3 g/kg, which were determined based on blood ethanol levels (BEL). This repeated standard alcohol intoxication paradigm kept BEL intoxication relatively constant in a range of sedation/ataxia (190 to 430 mg/dl, Table 3), according to the 6-point alcohol intoxication behavior scale (Majchrowicz, 1975). The mean dose of ethanol/rat/day (days 1-4) was 7.06 g/kg, similar to other studies (Obernier et al., 2002a, b). […] The autoradiograph was quantified by densitometry (NIH ImageJ® software, National Biosciences, Lincoln, Nebr. USA) and expressed as optical density (OD). […] The quantitative changes in mRNA levels were estimated by means of RT-PCR, carried out in the presence of the SYBR green primer using a 20-L reaction in a Rotor-Gene (Corbett Research®, Mortlake, NSW, Australia). […]

[1] = Blood ethanol levels (BEL) during 4-day alcohol intoxication protocol; format: in vivo, Wistar rats; settings: before and after force-feeding; two-way repeated measure ANOVA n.s.
Procedure: The animals were treated with intragastric (i.g.) ethanol 3 times a day using an i.g. cannula (16G needle, Fisher Scientific, Waltham, Mass., USA), following a protocol based on a slightly modified standard 4-day alcohol intoxication pattern (Bernier et al., 2002a, b) (FIG. 1A). The ethanol doses were administered every 8 h for a total time of 4 days. The rats treated with ethanol received an initial loading dose of 5 g/kg of ethanol in a 30% solution (w/v) and then a maximum maintenance dose of 3 g/kg, which were determined based on blood ethanol levels (BEL). This repeated standard alcohol intoxication paradigm kept BEL intoxication relatively constant in a range of sedation/ataxia (190 to 430 mg/dl, Table 3), according to the 6-point alcohol intoxication behavior scale (Majchrowicz, 1975). The mean dose of ethanol/rat/day (days 1-4) was 7.06 g/kg, similar to other studies (Obernier et al., 2002a, b). To confirm intoxication, BEL was determined in blood samples taken from the tail 120 minutes before and after the second i.g. administration of ethanol of the day, which was done at 3 pm by means of the use of electrochemical detection of an enzymatic reaction with an AM1 alcohol analyzer (Analox Instruments, London, United Kingdom). […]

CCCCCCCC/C=C\CCCCCCCC(=O)NCCO [OEA, oleoylethanolamide]
Ethanol-induced IκBα protein expression (IκBα; frontal cortex cytosol extracts): did not counteract | Ethanol-induced increase in IκBα mRNA levels (IκBα; frontal cortex): did not counteract | Effect of OEA pre-treatment on BEL reached during days 2-4 [1]: did not change
